The source of these data is PMC9986306, “Beyond CBD: Inhibitory effects of lesser studied phytocannabinoids on human voltage-gated sodium channels” (Frontiers in Physiology, 2023).

Marks after values point to notes of the source that are not given here.

In data set [1] the target is T1, human NaV1.6 channel (SCN8A, CHO cells) (Homo sapiens, UniProt Q9UQD0).
T1 construct: expressed in transfected cells
As to the kind of experiment: Planar patch-clamp, inhibition of peak sodium current (IC50 protocol). Type of data set: cell-based. As to conditions: for Effect on peak sodium current (in words): NaV1.6, 0.1–100 μM, no maximal inhibition at 100 µM. The procedure:
(§1) HEK293T cells stably expressing SCN1A or SCN2A and CHO cells stably expressing SCN8A or SCN9A were maintained as previously described ([Richards et al., 2018]; [Milligan et al., 2022]).
(§2) Patch-clamp recordings were made using a Patchliner® (Nanion Technologies, Munich, Germany) in the whole-cell configuration as previously described ([Richards et al., 2018]; [Milligan et al., 2022]). Briefly, cells were prepared in suspension at a density of 1 × 10^6-5 × 10^7 cells/mL. The external recording solution comprised (in mM): 140 NaCl, 4 KCl, 1 MgCl2, 2 CaCl2, 5 D-glucose, 10 HEPES, pH 7.4 with NaOH, ∼295 mOsm. The internal recording solution comprised (in mM): 50 CsCl, 60 CsF, 10 NaCl, 20 EGTA, 10 HEPES, pH 7.2 with CsOH, ∼285 mOsm. Medium single-hole planar NPC-16 chips with an average resistance of ∼2.5 MΩ were used. Chip and whole-cell capacitance were fully compensated, and 50% series resistance compensation applied. Recordings were acquired at 50 kHz with the low pass filter set to 10 kHz in PATCHMASTER (HEKA Instruments, NY, United States) and performed at 27°C. Offline analysis was performed using Microsoft Excel, MatLab R2019a (MathWorks) and GraphPad Prism 8 (Molecular Devices).
(§3) To determine half-maximal inhibitory concentrations (IC50), cells were held at −80 mV, stepped to −120 mV for 200 ms followed by 50 ms test depolarization to 0 mV every 2 s for 30 s in the presence of vehicle control (DMSO). The cells were then exposed to an individual phytocannabinoid (CBD, CBGA, CBDVA, CBG, CBCA or CBC) at concentrations between 0.1 and 100 μM, sequentially for 5 min. Currents for individual cells were averaged over 24 s periods directly before application and following a 5 min exposure of compound. Leak subtraction was applied before normalization of current amplitude. Normalized mean data were fit to the Hill equation.

In data set [2] the target is T2, human NaV1.1 channel (SCN1A, HEK293T cells) (Homo sapiens, UniProt P35498).
T2 construct: expressed in transfected cells
Described as above. As to conditions: NaV1.1; 0.1–100 μM, no maximal inhibition at 100 µM. Format: cell-based. The procedure:
as §1, §2, §3

The target in data set [3] is T3, human NaV1.2 channel (SCN2A, HEK293T cells) (Homo sapiens, UniProt Q99250).
T3 construct: expressed in transfected cells
The data set is described as above. The following applies: for Effect on peak sodium current (in words): NaV1.2, 0.1–100 μM, no maximal inhibition at 100 µM. Format: cell-based. The procedure:
as §1, §2, §3

Data set [4] concerns the target T4, human NaV1.7 channel (SCN9A, CHO cells) (Homo sapiens, UniProt Q15858).
T4 construct: expressed in transfected cells
Described as above. Type of data set: cell-based. The following applies: for Effect on peak sodium current (in words): NaV1.7, 0.1–100 μM, no maximal inhibition at 100 µM. The procedure: as §1, §2, §3

The test system of data set [5] is electrically induced seizure model. Set-up: method as in Davis and Hatoum, 1983. The following applies: ref Davis and Hatoum, 1983; cited from earlier work.
The subject of data set [6] is Scn1a+/− mouse model of DS. Set-up: method as in Anderson et al., 2021a; Anderson et al., 2021b. As to conditions: Scn1a+/− mice, ref Anderson et al., 2021a, 2021b; cited from earlier work.
Details of data set [7]: method as in Anderson et al., 2019b. As to conditions: CBDVA; ref Anderson et al., 2019b; cited from earlier work.
The target in data set [8] is T1, human NaV1.6 channel (SCN8A, CHO cells). As to the kind of experiment: Planar patch-clamp, biophysical properties (activation, SSFI, recovery from SSFI). The following applies: change vs vehicle DMSO at IC50 concentration (CBD 16.6 μM, CBGA 12.0 μM, CBDVA 24.1 μM). Format: cell-based. The procedure:
as §1, §2
(§4) Voltage protocols were used, as previously described ([Richards et al., 2018]). Briefly, to study the voltage-dependence of activation, cells were held at −120 mV and depolarized to test potentials, in 5 mV increments, between −120 mV and +50 mV for 100 ms. To study steady-state fast inactivation, cells were held at conditioning pre-pulse potentials ranging from −120 mV to +30 mV in 5 mV increments from a holding potential of −120 mV and a test pulse at 5 mV for 20 ms. Recovery from fast inactivation was studied by pre-pulsing the cells to 0 mV from a holding potential of −120 mV for 50 ms, to fully inactivate channels. The voltage was then stepped back to the holding potential for variable interpulse intervals (ipi from 0 to 39 ms in 3 ms increments). To test channel availability, the voltage was stepped to 0 mV for 50 ms.
(§5) To examine the voltage-dependence of activation, normalized current-voltage (I-V) relationships were converted to conductance (G) using the following equation: G = I/(V−V r ) where Vr is the reversal potential for Na^+. The voltage-dependence of conductance and availability were normalized and fitted to a Boltzmann equation: G = 1/(1 + exp [(V−V 0.5)/a]), where a is the slope of the half-maximum, V is the potential of the given pulse, and V 0.5 is the potential for the half-maximal activation/inactivation. The time course of inactivation was fitted to a single exponential function I/Imax = I0+A*exp (-t-t0/τ)+C, where I0 is the non-inactivating component, Imax is the peak current, t is time, and A is the component for the time constant τ. Time constants were plotted against voltage and the data fitted with a decaying exponential equation Y = span*exp (−K*x)+plateau, where span is the starting point of the curve, K is the decay factor, plateau is the value the curve decays to, and x is time. To measure recovery from inactivation, normalized currents were plotted against ipi and data fitted with equation I/I max = 1-exp/(rc + x), where I max is maximal current; rc recovery rate constant; x is time. Peak current (I) was plotted as fractional recovery against the recovery period by normalizing to the maximum current (Imax) during the conditioning potentials.

Data set [9] concerns the target T2, human NaV1.1 channel (SCN1A, HEK293T cells). The data set is described as above. Format: cell-based. The following applies: change vs vehicle DMSO at IC50 concentration (CBD 18.5 μM, CBGA 13.6 μM, CBDVA 50 μM). The procedure:
as §1, §2, §4, §5

Data set [10] has as its target T3, human NaV1.2 channel (SCN2A, HEK293T cells). The data set is described as above. Type of data set: cell-based. As to conditions: change vs vehicle DMSO at IC50 concentration (CBD 18.4 μM, CBGA 14.7 μM, CBDVA 60 μM). The procedure: as §1, §2, §4, §5
For data set [11], the target named is T4, human NaV1.7 channel (SCN9A, CHO cells). The description is as above. As to conditions: change vs vehicle DMSO at IC50 concentration (CBD 11.9 μM, CBGA 16.4 μM, CBDVA 60 μM). Format: cell-based. The procedure:
as §1, §2, §4, §5

The test system of data set [12] is PTZ-induced acute seizure model. Set-up: method as in Hill et al., 2014. As to conditions: ref Hill et al., 2014; cited from earlier work.
The test system of another data set is sodium channels. Set-up: method as in Hill et al., 2014; Ghovanloo et al., 2022. As to conditions: different voltage protocols or model systems; ref Hill et al., 2014; Ghovanloo et al., 2022; read-out: IC50 (low affinity inhibitor of sodium channels); cited from earlier work.

T1 sequence (Q9UQD0 whole entry): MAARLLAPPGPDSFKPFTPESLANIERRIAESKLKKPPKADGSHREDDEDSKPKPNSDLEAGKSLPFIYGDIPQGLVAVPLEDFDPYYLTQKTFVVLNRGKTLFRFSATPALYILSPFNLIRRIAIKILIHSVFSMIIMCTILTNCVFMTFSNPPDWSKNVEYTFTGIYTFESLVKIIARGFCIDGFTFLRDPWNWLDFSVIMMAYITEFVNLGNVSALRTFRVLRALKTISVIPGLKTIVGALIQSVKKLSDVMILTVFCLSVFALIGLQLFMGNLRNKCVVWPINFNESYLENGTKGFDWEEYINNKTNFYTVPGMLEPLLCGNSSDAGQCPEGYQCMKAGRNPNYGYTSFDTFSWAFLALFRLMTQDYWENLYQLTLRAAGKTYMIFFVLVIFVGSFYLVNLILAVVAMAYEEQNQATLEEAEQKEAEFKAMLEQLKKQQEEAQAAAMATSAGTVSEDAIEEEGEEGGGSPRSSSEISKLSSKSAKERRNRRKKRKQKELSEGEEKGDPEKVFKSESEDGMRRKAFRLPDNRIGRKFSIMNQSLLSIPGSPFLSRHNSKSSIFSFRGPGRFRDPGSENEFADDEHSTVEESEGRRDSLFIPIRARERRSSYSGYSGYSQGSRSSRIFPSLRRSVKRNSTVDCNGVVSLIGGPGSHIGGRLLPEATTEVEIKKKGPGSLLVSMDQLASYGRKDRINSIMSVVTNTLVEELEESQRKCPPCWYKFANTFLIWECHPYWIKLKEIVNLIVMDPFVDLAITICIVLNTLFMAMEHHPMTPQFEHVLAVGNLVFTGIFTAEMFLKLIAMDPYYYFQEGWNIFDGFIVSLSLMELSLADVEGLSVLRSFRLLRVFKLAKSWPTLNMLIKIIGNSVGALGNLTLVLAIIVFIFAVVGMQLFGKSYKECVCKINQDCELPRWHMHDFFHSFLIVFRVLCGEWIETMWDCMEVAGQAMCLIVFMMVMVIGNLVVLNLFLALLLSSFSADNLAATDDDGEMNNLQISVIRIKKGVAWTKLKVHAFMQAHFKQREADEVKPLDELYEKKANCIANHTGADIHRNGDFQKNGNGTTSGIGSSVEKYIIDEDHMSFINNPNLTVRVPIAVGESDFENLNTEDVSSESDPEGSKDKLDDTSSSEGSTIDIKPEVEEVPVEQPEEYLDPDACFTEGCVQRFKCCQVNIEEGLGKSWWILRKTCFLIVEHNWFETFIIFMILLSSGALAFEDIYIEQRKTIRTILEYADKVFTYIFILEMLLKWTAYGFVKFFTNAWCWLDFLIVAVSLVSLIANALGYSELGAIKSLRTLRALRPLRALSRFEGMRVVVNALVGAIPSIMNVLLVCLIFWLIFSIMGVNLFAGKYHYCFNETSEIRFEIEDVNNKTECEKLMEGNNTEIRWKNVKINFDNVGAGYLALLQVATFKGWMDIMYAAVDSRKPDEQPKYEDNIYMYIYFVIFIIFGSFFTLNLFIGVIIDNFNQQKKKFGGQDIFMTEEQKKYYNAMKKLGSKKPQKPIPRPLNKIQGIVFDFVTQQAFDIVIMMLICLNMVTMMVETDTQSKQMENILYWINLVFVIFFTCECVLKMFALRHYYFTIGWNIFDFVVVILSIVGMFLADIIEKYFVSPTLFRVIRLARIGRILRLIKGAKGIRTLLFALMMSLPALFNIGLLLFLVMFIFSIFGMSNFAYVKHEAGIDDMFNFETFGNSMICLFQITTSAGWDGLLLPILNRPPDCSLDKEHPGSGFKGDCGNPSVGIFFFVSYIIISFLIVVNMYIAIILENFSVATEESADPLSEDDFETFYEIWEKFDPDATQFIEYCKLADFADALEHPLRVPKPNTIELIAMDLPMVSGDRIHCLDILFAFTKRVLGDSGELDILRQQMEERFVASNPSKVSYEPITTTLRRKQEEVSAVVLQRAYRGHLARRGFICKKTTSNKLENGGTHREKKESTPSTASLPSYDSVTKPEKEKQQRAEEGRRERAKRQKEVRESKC
T4 sequence (Q15858 whole entry): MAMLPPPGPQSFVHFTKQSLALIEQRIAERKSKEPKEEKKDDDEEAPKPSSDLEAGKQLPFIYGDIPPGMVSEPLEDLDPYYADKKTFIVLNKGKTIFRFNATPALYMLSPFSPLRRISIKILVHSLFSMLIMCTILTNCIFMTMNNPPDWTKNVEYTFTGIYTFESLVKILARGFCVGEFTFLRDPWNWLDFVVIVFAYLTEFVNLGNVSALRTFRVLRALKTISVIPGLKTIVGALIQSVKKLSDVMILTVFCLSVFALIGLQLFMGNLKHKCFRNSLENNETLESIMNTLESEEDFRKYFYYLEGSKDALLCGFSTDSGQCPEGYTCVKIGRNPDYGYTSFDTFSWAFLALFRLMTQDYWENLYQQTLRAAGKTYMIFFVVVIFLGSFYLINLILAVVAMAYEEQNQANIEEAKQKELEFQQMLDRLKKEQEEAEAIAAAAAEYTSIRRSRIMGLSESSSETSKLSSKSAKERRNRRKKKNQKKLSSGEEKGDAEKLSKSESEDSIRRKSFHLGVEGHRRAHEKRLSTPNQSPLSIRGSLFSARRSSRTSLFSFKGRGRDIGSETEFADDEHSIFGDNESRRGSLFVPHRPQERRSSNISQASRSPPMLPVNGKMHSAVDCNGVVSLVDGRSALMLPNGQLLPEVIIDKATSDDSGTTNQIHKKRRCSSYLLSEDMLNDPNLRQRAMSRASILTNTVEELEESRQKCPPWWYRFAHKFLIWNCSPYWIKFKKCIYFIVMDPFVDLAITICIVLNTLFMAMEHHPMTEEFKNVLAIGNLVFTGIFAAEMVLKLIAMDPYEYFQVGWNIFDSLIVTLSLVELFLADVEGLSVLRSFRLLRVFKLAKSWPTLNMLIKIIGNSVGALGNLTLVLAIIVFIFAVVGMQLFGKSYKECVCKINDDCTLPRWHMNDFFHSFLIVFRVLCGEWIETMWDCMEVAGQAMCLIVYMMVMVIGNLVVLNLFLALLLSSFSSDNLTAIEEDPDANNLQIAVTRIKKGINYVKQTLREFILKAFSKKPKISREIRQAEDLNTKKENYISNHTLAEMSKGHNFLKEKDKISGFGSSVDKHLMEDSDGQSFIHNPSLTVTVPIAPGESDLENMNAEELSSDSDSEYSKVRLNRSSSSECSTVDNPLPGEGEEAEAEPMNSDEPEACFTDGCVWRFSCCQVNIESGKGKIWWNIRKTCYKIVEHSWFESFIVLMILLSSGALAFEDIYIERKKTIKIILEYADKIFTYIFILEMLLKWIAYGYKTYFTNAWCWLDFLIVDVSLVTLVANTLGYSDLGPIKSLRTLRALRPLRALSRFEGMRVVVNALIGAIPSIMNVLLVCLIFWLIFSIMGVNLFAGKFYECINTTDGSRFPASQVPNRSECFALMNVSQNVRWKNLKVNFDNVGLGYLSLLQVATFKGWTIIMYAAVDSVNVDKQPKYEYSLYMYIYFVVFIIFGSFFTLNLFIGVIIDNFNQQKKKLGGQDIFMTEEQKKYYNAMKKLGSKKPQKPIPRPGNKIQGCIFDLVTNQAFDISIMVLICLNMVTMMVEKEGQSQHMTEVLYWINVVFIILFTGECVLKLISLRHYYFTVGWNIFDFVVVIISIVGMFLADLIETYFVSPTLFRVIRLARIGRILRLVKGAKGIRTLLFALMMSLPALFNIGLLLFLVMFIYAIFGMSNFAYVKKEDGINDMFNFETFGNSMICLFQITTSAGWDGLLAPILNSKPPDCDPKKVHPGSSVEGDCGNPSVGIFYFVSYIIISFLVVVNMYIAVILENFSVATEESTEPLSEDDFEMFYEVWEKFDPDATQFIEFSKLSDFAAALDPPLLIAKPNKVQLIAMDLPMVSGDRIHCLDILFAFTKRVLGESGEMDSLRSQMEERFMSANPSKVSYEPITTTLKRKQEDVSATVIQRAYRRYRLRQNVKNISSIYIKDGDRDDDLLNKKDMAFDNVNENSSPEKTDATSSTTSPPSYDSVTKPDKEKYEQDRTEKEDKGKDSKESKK

For `CCCCCc1cc(O)c2c(c1)OC(C)(CCC=C(C)C)C=C2` (centres unmarked) [CBC, cannabichromene], the “Effect on peak sodium current (in words)” value in data set [1], in data set [2], in [3] and in data set [4] was “modestly inhibited” each time. The “Effect in electrically induced seizure model” value in data set [5] was “ineffective”. For the same molecule, in data set [6], the “Effect against hyperthermia-induced seizures” value was “anti-convulsant properties”.

As for `CCCCCc1cc2c(c(O)c1C(=O)O)C=CC(C)(CCC=C(C)C)O2` (centres unmarked) [CBCA, cannabichromenic acid], the “Effect on peak sodium current (in words)” value in data set [1], in data set [2], in data set [3] and in data set [4] was “modestly inhibited” in each case. Moreover, the “Effect against hyperthermia-induced seizures” value in [6] was “anti-convulsant properties”.

With `C=C(C)[C@@H]1CCC(C)=C[C@H]1c1c(O)cc(CCC)c(C(=O)O)c1O` [CBDVA, cannabidivarinic acid], the “Slope (Hill slope coefficient)” value in [1] (NaV1.6 concentration-response, mean ± SEM) came to 2.1 ± 0.5. Moreover, the IC50 in data set [1] (NaV1.6 peak current, 0.1–100 µM, 5 min exposure, mean ± SEM) was 24.1 ± 1.2 µM; in data set [3] (NaV1.2 peak current, 0.1–100 µM, 5 min exposure, mean ± SEM) it was not below 60 µM; in [4] (NaV1.7 peak current, 0.1–100 µM, 5 min exposure, mean ± SEM), not below 60 µM. Also, the “Effect on peak sodium current (in words)” value in data set [2], in [3] and in data set [4] was “only partially inhibited” each time. Also, the “Effect against hyperthermia-induced seizures” value in [6] was “anti-convulsant properties”. In [7], the “Estimated brain concentration attained at anti-convulsant doses” value is 5.5 µM. The “Inactivation △ V0.5 inact” value in [8] (SSFI) is −3.0 ± 1.3* mV; in data set [9] (SSFI), −10.1 ± 2.3** mV; in [10] (SSFI) it was −2.3 ± 1.5 mV; in data set [11] (SSFI), −4.1 ± 0.9*** mV. Also, the “Inactivation △ slope factor” value is listed as 0.5 ± 0.3 in [8] (SSFI), 1.8 ± 0.3*** in data set [9] (SSFI), 1.0 ± 0.2*** in data set [10] (SSFI) and 1.6 ± 0.3**** in data set [11] (SSFI). For the same molecule, the “Activation △ Slope factor” value in data set [8] is reported as 1.9 ± 0.7*; in data set [9], 1.7 ± 0.4***; in data set [10] it was 0.9 ± 0.2****; in [11], 0.9 ± 0.2***. Further, the “Activation △ V0.5 act” value in data set [8] is 10.4 ± 2.9** mV; in data set [9] it was 13.0 ± 1.6**** mV; in data set [10], 11.5 ± 1.5**** mV; in data set [11], 8.7 ± 1.8*** mV. Further, the “Inactivation △ τinact SSFI at 5 mV” value is given as 0.3 ± 0.09** in data set [8], 0.4 ± 0.05**** in [9], 0.4 ± 0.06**** in data set [10] and 0.3 ± 0.07** in data set [11].

Consider `CCCCCc1cc(O)c(C/C=C(\C)CCC=C(C)C)c(O)c1` [CBG, cannabigerol], for which the “Anti-convulsant effect in PTZ-induced acute seizure model” value in [12] is listed as “ineffective”. The “Effect on peak sodium current (in words)” value in data set [1], in data set [2], in [3] and in data set [4] was “modestly inhibited” each time. Also, the IC50 in the data set with sodium channels was 2 to 22 µM. Besides, the “Effect against hyperthermia-induced seizures” value in [6] was “ineffective”.
